Laboratory results published in US6797255B1, “Methods and compositions for enhancing magnetic resonance imaging” (Mallinckrodt Inc., priority 1985, dated 2004).

Columns and labels:
[1] = Solubility of the complex in water; format: physicochemical
Procedure: (§1) The complex, dihydrogen bis(N-[N′-(2,6-diisopropylphenyl)carbamoylmethyl]iminodiaceto)manganese(II) hydrate, was thus isolated as the hydrated species. The solubility of the complex in water was determined to be approximately 0.1% w/v. The relaxation parameters T1 and T2 of a 10-^−3M solution of the complex in a 90 MHz NMR experiment were determined to be 0.107 sec. and 0.007 sec. respectively. The T1 and T2 values for water are 2.51 sec. and 0.150 sec., respectively.
(§2) The relaxation parameters T1 and T2 of a 10^−3M solution of the complex in a 90 MHz NMR experiment were determined to be 126 milliseconds and 1.5 milliseconds, respectively.

[2] = Relaxation parameters T1 and T2 of a 10^−3M solution in a 90 MHz NMR experiment; format: physicochemical; conditions: 10^−3M solution
Procedure: as §1, §2

Swiss CF-1 mice = assay: Acute intravenous toxicity determination; format: in vivo; conditions: for LD50: acute, intravenous, Trihydrate
Procedure: Dihydrogen Bis(N-[N′-(2,6-dimethylphenyl)carbamoylmethyl]iminidiaceto)manganese(II) trihydrate was dissolved in 0.9% sodium chloride Inj. USP as a 1.25% solution.
Male and female Swiss CF-1 mice with a body weight range of 17.4 to 24.2 grams were used. The mice were housed according to standard procedures and individually marked with picric acid.
The dose schedule was as follows:
Measured single doses were injected into the lateral tail vein at a rate of 1 ml/min. The animals were observed immediately after dosing and during the 7-day observation period for pharmacotoxic reactions. Recording of terminal body weights and general necropsy-of the thoracic and abdominal organs was performed after 7 days.

rabbits = assay: Tissue T1 and T2 relaxation times 45 min after intravenous injection (time course); format: in vivo; conditions: for T1 relaxation time / T2 relaxation time: 45 min after 0.03 mmol/kg i.v., 10 mHz RADX
Procedure: (§3) All experiments employing the complex dihydrogen bis(N-[N′-(2,6-dimethylphenyl)carbamoylmethyl]iminodiaceto)manganese (II) trihydrate were conducted following intravenous administration to rabbits. A 10 mM solution of the complex was used in these studies. Rabbits were anesthetized with ketamine/xylazine prior to treatment. The results given were obtained with a 10 mHz RADX proton spin analyzer.
A second study was performed in two rabbits killed 45 min after intravenous injection of 0.03 mmol of the complex/Kg to examine the time course of T1 and T2relaxation enhancement.

rabbit = assay: Bile proton T1 and T2 relaxation times over 105 min after intravenous injection; format: in vivo; conditions: 0.03 mmol/kg i.v., one rabbit
Procedure: as §3
In a third study, one rabbit received 0.03 mmol of the complex/kg and bile samples were collected at 5-20 min intervals over a 105 min time course and proton T1 and T2 relaxation times were determined. Control bile T1 relaxation time was 944 msec. within 1 min of injection, bile T1 was reduced to 60 msec. Over the 105 minute time course, bile T1 returned to a value of 91 msec, less than 10% of the preinjection control value. The preinjection bile T2 relaxation time was 16 msec.

With `Cc1cccc(C)c1NC(=O)CN(CC(=O)[O-])CC(=O)O.Cc1cccc(C)c1NC(=O)CN(CC(=O)[O-])CC(=O)O.O.O.O.[Mn+2]` [Example 2] the “solubility of the complex in water” value [1] was 2.5 % w/v, the “solubility of the complex in water (molar)” value [1] was “approximately 3.6×10^−3 M” and the “relaxation parameter T1” value [2] was 126 milliseconds. For the same compound, the “relaxation parameter T2” value [2] was 1.5 milliseconds, the Body weight change (Swiss CF-1 mice; 0.360 mmol/kg i.v., after 7 days) was “+1.75 g” and the Mortalities/number tested (Swiss CF-1 mice; 0.360 mmol/kg i.v., day 1 after dosing) was 0/4. The Mortalities/number tested (Swiss CF-1 mice; 0.360 mmol/kg i.v., day 2 after dosing) was 0/4, the Mortalities/number tested (Swiss CF-1 mice; 0.360 mmol/kg i.v., day 3 after dosing) was 0/4 and the Mortalities/number tested (Swiss CF-1 mice; 0.360 mmol/kg i.v., day 4 after dosing) was 0/4. For the same compound, the Mortalities/number tested (Swiss CF-1 mice; 0.360 mmol/kg i.v., day 5 after dosing) was 0/4, the Mortalities/number tested (Swiss CF-1 mice; 0.360 mmol/kg i.v., day 6 after dosing) was 0/4 and the Mortalities/number tested (Swiss CF-1 mice; 0.360 mmol/kg i.v., day 7 after dosing) was 0/4. For the same compound, the Mortalities/number tested (Swiss CF-1 mice; 0.360 mmol/kg i.v., immediate) was 0/4, the Body weight change (Swiss CF-1 mice; 0.540 mmol/kg i.v., after 7 days) was “+2.0 g” and the Mortalities/number tested (Swiss CF-1 mice; 0.540 mmol/kg i.v., day 1 after dosing) was 2/4. For the same compound, the Mortalities/number tested (Swiss CF-1 mice; 0.540 mmol/kg i.v., day 2 after dosing) was 2/4, the Mortalities/number tested (Swiss CF-1 mice; 0.540 mmol/kg i.v., day 3 after dosing) was 2/4 and the Mortalities/number tested (Swiss CF-1 mice; 0.540 mmol/kg i.v., day 4 after dosing) was 2/4. The Mortalities/number tested (Swiss CF-1 mice; 0.540 mmol/kg i.v., day 5 after dosing) was 2/4, the Mortalities/number tested (Swiss CF-1 mice; 0.540 mmol/kg i.v., day 6 after dosing) was 2/4 and the Mortalities/number tested (Swiss CF-1 mice; 0.540 mmol/kg i.v., day 7 after dosing) was 2/4. For the same compound, the Mortalities/number tested (Swiss CF-1 mice; 0.540 mmol/kg i.v., immediate) was 2/4, the Body weight change (Swiss CF-1 mice; 0.630 mmol/kg i.v., after 7 days) was “+1.6 g” and the Mortalities/number tested (Swiss CF-1 mice; 0.630 mmol/kg i.v., day 1 after dosing) was 3/4. The Mortalities/number tested (Swiss CF-1 mice; 0.630 mmol/kg i.v., day 2 after dosing) was 3/4, the Mortalities/number tested (Swiss CF-1 mice; 0.630 mmol/kg i.v., day 3 after dosing) was 3/4 and the Mortalities/number tested (Swiss CF-1 mice; 0.630 mmol/kg i.v., day 4 after dosing) was 3/4. The Mortalities/number tested (Swiss CF-1 mice; 0.630 mmol/kg i.v., day 5 after dosing) was 3/4, the Mortalities/number tested (Swiss CF-1 mice; 0.630 mmol/kg i.v., day 6 after dosing) was 3/4 and the Mortalities/number tested (Swiss CF-1 mice; 0.630 mmol/kg i.v., day 7 after dosing) was 3/4. The Mortalities/number tested (Swiss CF-1 mice; 0.630 mmol/kg i.v., immediate) was 3/4, the “pharmacotoxic reactions immediately after injection” value (Swiss CF-1 mice; 0.360-0.630 mmol/kg i.v., mice) was “Mild to severe convulsions occurred in all the animals immediately after injections” and the “pharmacotoxic reactions of surviving animals” value (Swiss CF-1 mice; 0.360-0.630 mmol/kg i.v., mice) was “mild to severe depression which was resolved within one hour after dosing”. The weight gains (Swiss CF-1 mice; 7-day observation) was “normal”, the LD50 (Swiss CF-1 mice; mouse, listed as dihydrogen bis(N-[N′-(2,6-dimethylphenyl)carbamoylmethyl]-iminodiaceto)manganese) was about 0.5 mmol/kg and the LD50 (Swiss CF-1 mice; mouse, listed as dihydrogen bis(N-[N′-(2,6-dimethylphenyl)carbamoylmethyl]iminodiaceto)-manganese) was “approximately 0.540 mmol/kg”. For the same compound, the necropsy findings (Swiss CF-1 mice; after 7 days) was “did not reveal any abnormalities”, the diagnostic safety ratio (Swiss CF-1 mice; mouse i.v. LD50 vs ED50 for hepatic T1 enhancement) was “approximately 50” and the intravenous toxicity profile (Swiss CF-1 mice; mouse, in vivo, iv) was “favorable intravenous toxicity profile”. The “tissue T1 relaxation times at 45 min compared with 15 min” value (rabbits; 0.03 mmol/kg i.v.) was “decreased to the same extent as noted at 15 min”, the T1 relaxation time (rabbits; Bladder) was 367 ms and the T2 relaxation time (rabbits; Bladder) was 72 ms. For the same compound, the T1 relaxation time (rabbits; Fat) was 137 ms, the T2 relaxation time (rabbits; Fat) was 125 ms and the T1 relaxation time (rabbits; Heart) was 265 ms. It also gave a T2 relaxation time (rabbits; Heart) of 57 ms, a T1 relaxation time (rabbits; Large Intestine) of 154 ms and a T2 relaxation time (rabbits; Large Intestine) of 47 ms. It also gave a T1 relaxation time (rabbits; Liver) of 37 ms, a T2 relaxation time (rabbits; Liver) of 24 ms and a T1 relaxation time (rabbits; Lung) of 438 ms. It also gave a T2 relaxation time (rabbits; Lung) of 89 ms, a T1 relaxation time (rabbits; Pancreas) of 117 ms and a T2 relaxation time (rabbits; Pancreas) of 75 ms. For the same compound, the T1 relaxation time (rabbits; Renal cortex) was 143 ms, the T2 relaxation time (rabbits; Renal cortex) was 57 ms and the T1 relaxation time (rabbits; Renal medulla) was 244 ms. The T2 relaxation time (rabbits; Renal medulla) was 91 ms, the T1 relaxation time (rabbits; Skeletal muscle) was 315 ms and the T2 relaxation time (rabbits; Skeletal muscle) was 41 ms. The T1 relaxation time (rabbits; Small Intestine) was 129 ms, the T2 relaxation time (rabbits; Small Intestine) was 48 ms and the T1 relaxation time (rabbits; Spleen) was 271 ms. It also gave a T2 relaxation time (rabbits; Spleen) of 71 ms, a T1 relaxation time (rabbits; Stomach) of 159 ms and a T2 relaxation time (rabbits; Stomach) of 47 ms. The “bile T1 relative to preinjection control value” (rabbit; at 105 min) was “less than 10%”, the “bile T2 relaxation time” value (rabbit; gradual increase following injection) was 44 ms and the “bile T1 relaxation time” value (rabbit; over the 105 minute time course (end value)) was 91 ms. The “bile T1 relaxation time” value (rabbit; within 1 min of injection) was 60 ms.
